Laboratory results from US5658906A, “Cysteine protease and serine protease inhibitors” (Cephalon, Inc., priority 1996, dated 1997).

Tests used:
Type in all cases: biochemical
[1] = biological target: T1, Cathepsin L (Homo sapiens, UniProt P07711); experiment: Inhibition and rate of inactivation of cathepsin L (Cbz-Phe-Arg-AMC hydrolysis); details: pH 6.0, 0.006 mM substrate, read-out: k2 (second order rate constant of inactivation), B = Cathepsin L
T1 construct: purchased Calbiochem 219402
Protocol: (§1) Additionally, the order of reagents added to the plate was altered because both enzymes are constitutively active. Following inhibitor addition to the plates appropriate 2× concentrated stock dilutions of the enzyme preparations were made in assay buffer and 100 ul added to each well. The assay was initiated by addition of 100 ul of 2× concentrated stock dilution of substrate in assay buffer. Substrate hydrolysis was monitored using a Fluroskan II (ex=390 nm; em=460 nm).
(§2) Inhibition of enzyme activity was calculated as the percent decrease in the rate of substrate hydrolysis in the presence of inhibitor (.upsilon.i) relative to the rate in its absence (.upsilon.o). Comparison between .upsilon.o and .upsilon.i was made within the linear range for substrate hydrolysis. For screening, compounds were tested at 10 μM. Compounds having ≥50% inhibition at 10 μM were considered active. Apparent second order rate constants were determined from analysis of reaction progress curves under pseudo-first order conditions. Each determination represents the mean of three or more independent single cuvette analyses continually monitored via a Perkin-Elmer LS50B spectrofluorimeter. The rate of inhibition of hydrolysis was obtained by fitting the curve to the exponential equation (1):
(§3) y=Ae^-k.spsb.obs·t +B (1)
(§4) where y (Pt) is the product formed at time t. A and B are constants. A, the amplitude of the reaction, is given by [Po -P.varies. ] and B (=P.varies.) is the maximal product formed when the reaction is […]. This was corrected for the presence of equation (2): […]

[2] = biological target: T2, α-chymotrypsin (Bos taurus, UniProt P00766); experiment: Inhibition of the serine protease α-chymotrypsin (Succ-Ala-Ala-Pro-Phe-AMC hydrolysis); details: pH 7.5, 0.03 mM substrate
T2 construct: purchased Sigma Chem. Co. C-3142
Protocol: Additionally,because α-chymotrypsin is not a calcium sensitive enzyme and is constituitively active, following addition of inhibitor stocks to the 96 well plates, 100 ul of a 2 fold concentrated stock of enzyme in dilution buffer was first added and the reaction started by addition of 100 ul of a 2 fold concentrated stock of substrate in assay buffer. Substrate hydrolysis was monitored every 5 minutes up to 30 minutes using a Fluoroskan II ([…]).

[3] = biological target: T3, Cathepsin B (Homo sapiens, UniProt P07858); experiment: Inhibition and rate of inactivation of cathepsin B (Cbz-Phe-Arg-AMC hydrolysis); details: pH 6.0, 0.1 mM substrate, read-out: k2 (second order rate constant of inactivation), C = Cathepsin B
T3 construct: purchased Calbiochem 219364
Protocol: as §1, §2, §3, §4

T1 sequence (P07711 114-333): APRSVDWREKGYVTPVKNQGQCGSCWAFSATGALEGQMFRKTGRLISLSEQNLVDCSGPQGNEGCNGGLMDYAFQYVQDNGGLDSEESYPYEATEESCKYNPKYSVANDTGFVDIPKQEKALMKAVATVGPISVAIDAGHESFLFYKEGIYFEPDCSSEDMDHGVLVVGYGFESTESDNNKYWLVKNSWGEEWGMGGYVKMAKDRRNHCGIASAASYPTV

kinact/KI [1] | inhibition at 10 µM [2] | kinact/KI [3] | SMILES
100000 M⁻¹ s⁻¹ | 86% | 117000 M⁻¹ s⁻¹ | CC(C)C[C@H](NC(=O)OCc1ccccc1)C(=O)N[C@@H](Cc1ccccc1)C(=O)COn1nnc2ccccc21 [Example 3, 1-[N-[N-Benzyloxycarbonyl-L-leucyl]-3S-4-phenyl-3-amino-2-oxobutyloxy]benzotriazole]
3e+06 M⁻¹ s⁻¹ | 34% | 443000 M⁻¹ s⁻¹ | CC[C@H](NC(=O)[C@H](CC(C)C)NC(=O)OCc1ccccc1)C(=O)COn1nnc2ccccc21 [Example 5, 1-[N-[N-Benzyloxycarbonyl-L-leucyl]-3S-3-amino-2-oxopentyloxy] benzotriazole]
40000 M⁻¹ s⁻¹ | 81% | 107000 M⁻¹ s⁻¹ | CC(C)C[C@H](NC(=O)OCc1ccccc1)C(=O)N[C@@H](Cc1ccccc1)C(=O)COn1nnc2cccnc21 [Example 6, 3-[N-[N-Benzyloxycarbonyl-L-leucyl]-3S-4-phenyl-3-amino-2-oxobutyloxy]-3H-triazolo[4,5-b]pyridine]
70000 M⁻¹ s⁻¹ | 82% | 7000 M⁻¹ s⁻¹ | CC(C)C[C@H](NC(=O)OCc1ccccc1)C(=O)N[C@@H](Cc1ccccc1)C(=O)COn1nnc2ccccc2c1=O [Example 28, 1-[N-[N-Benzyloxycarbonyl-L-leucyl]-3S-4-phenyl-3-amino-2-oxobutyloxy]-3-benzotriazin-4-one]
